Tested on: NF-κB and p38 MAPK signaling pathways, APPL1
Experiment: Western blotting of signaling proteins in Raw264.7 cells
Type: cell-based
Details: for densitometry value p-IRAK4 (FIG. 5a) / densitometry value p-P38 (FIG. 5a) / densitometry value APPL1 (FIG. 5e), without LPS / densitometry value APPL1 (FIG. 5e), with LPS: relative to first lane 1.00, lane order inferred; for densitometry value p-IRAK4 (FIG. 5a) / densitometry value p-P38 (FIG. 5a): APR 20 μM or AdipoAI 5 μM 24 h, LPS 30 min; for densitometry value APPL1 (FIG. 5e), without LPS: APR 20 μM; for densitometry value APPL1 (FIG. 5e), with LPS: LPS alone 0.32
Description: FIG. 5 AdipoAI inhibition of NF-κB and p38 MAPK signaling pathways is dependent of AdipoR1/APPL1 axis in LPS-induced macrophages. (a) Impact of AdipoAI in the phosphorylation of related signaling proteins by western blotting. Raw264.7 cells were pretreated with APR (20 μM) or AdipoAI (5 μM) for 24 h followed by incubation with LPS (100 ng/mL) for an additional 30 min. Representative images are shown, and quantitative analysis of protein expression was performed by densitometric analysis (see lower panel), densitometry values—p-IRAK4: 1.00, 0.13, 0.09; p-P38: 1.00, 0.76, 0.26. (b) Expression of p65 protein in cytoplasmic and nuclear extracts of Raw264.7 cells. Representative images of p65 expression are presented along with Lamin B1 and β-actin expression which were used as internal loading controls. Quantitative analysis of protein expression was performed by densitometric analysis (lower panel), Densitometry values-p-P65: 0.53, 1.00, 0.38, 0.76; P65: 0.32, 1.00, 0.21, 0.53. (c) RAW 264.7 cells were transfected with siRNA targeting cither AdipoR1, AdipoR2, APPL1, APPL2 or scrambled control siRNA for 24 h, followed by stimulation with AdipoAI or APR for 24 h, then incubation with LPS for additional 6 h. Transfection efficiency of siRNA and mRNA expression levels of IL-6, IL-1β were measured by qPCR and normalized with GAPDH mRNA levels. Data were expressed as the mean±SEM at five biological independent experiments. One-way ANOVA test for multiple-group comparisons, *P<0.05, significant differences between each indicated group. ns, not significant. (d) RAW 264.7 cells were stimulated with LPS, AdipoAI, or APR for different times and proteins levels determined by western blotting. Representative western blotting images are shown along with β-actin used as an internal loading control and densitometric analysis. Densitometry values-Panel 1: APPL1: 1.00, 0.48, 0.44; Panel 2: APPL1: 1.00, 2.17, 5.38; Panel 3: APPL1: 1.00, 2.11, 4.82. (e) Raw264.7 cells were pretreated with APR (20 μM) or AdipoAI (5 μM) for 24 h followed by incubation with LPS (100 ng/mL) for additional 6 h for the measurement of related proteins by WB. Representative images are shown along with β-actin as an internal loading control and densitometric analysis. Densitometry values—APPL1: 1.00, 1.53, 1.58, 0.32, 0.45, 0.67. (f) Raw264.7 cells and (g) BMMs were transfected with siRNA targeting APPL1 or scrambled control siRNA for 24 h, followed by stimulation with AdipoAI for 24 h, then incubation with LPS for additional 6 h for western blotting analysis. Densitometry values for f—APPL1: 1.00, 0.43; p-IRAK4: 1.00, 1.31; p-P-38:1.00, 1.47. Densitometry values for g—APPL1: 1.00, 0.38; p-IRAK4: 1.00, 1.30; p-P38: 1.00, 1.67. Representative images are shown along with β-actin as an internal loading control, and densitometric analysis. No statistical analysis of western blotting for n=3.
Total cellular extracts were prepared using RIPA Lysis and Extraction Buffer containing three Protease Inhibitors (Thermo Scientific). Cytoplasmic and nuclear extracts were purified using NE-PER™ Nuclear and Cytoplasmic Extraction Reagents (Thermo Scientific). Experimental details of western blotting are in accordance with British Journal of Pharmacology guidelines (Alexander et al., 2018) and western blot analyses were performed as previously described (J. Zhang et al., 2017). Briefly, the total protein concentration was quantified using BCA kit (P1511; Applygen Technologies Inc., Beijing, China). The samples were separated by SDS-PAGE and electrophoretically transferred to a polyvinylidene difluoride membrane (Merck Millipore, Darmstadt, Germany). The membranes were blocked with 5% skim milk for 1 to 2 hr at room temperature. […]

[1] = LPS-induced Raw264.7 cells, AdipoAI 5 μM

For `COc1ccc(CN2CCC(NC(=O)COc3ccc(C(=O)c4ccc(Cl)cc4)cc3)CC2)cc1` [Compound 3], the “phosphorylation of AKT, JNK or ERK” value (LPS-induced Raw264.7 cells) was “did not significantly alter phosphorylation of AKT, JNK or ERK”, the “decrease of phosphorylation of IRAK4” value [1] was 70% and the “decrease of phosphorylation of p38” value [1] was 70%. The APPL1 protein expression (Raw264.7 cells) was “increased APPL1 expression”, the “AdipoR1 or AdipoR2 protein levels” value (Raw264.7 cells) was “did not influence AdipoR1 or AdipoR2 protein levels” and the “LPS-induced p65 phosphorylation and nuclear translocation” value (Raw264.7 cells) was “suppressed LPS-induced p65 phosphorylation and nuclear translocation”. For the same molecule, the “densitometry value p-IRAK4 (FIG. 5a)” value was 0.09, the “densitometry value p-P38 (FIG. 5a)” value was 0.26 and the “densitometry value APPL1 (FIG. 5e), without LPS” value (AdipoAI 5 μM) was 1.58. The “densitometry value APPL1 (FIG. 5e), with LPS” value was 0.67.

`O=C(COc1ccc(C(=O)c2ccccc2)cc1)NC1CCN(Cc2ccccc2)CC1` [AdipoRon, reference compound] was tested, and the APPL1 protein expression (Raw264.7 cells) was “increased”, the “densitometry value p-IRAK4 (FIG. 5a)” value was 0.13 and the “densitometry value p-P38 (FIG. 5a)” value was 0.76. The “densitometry value APPL1 (FIG. 5e), without LPS” value (AdipoAI 5 μM) was 1.53 and the “densitometry value APPL1 (FIG. 5e), with LPS” value was 0.45.
